Measurements taken from patent US8232313B2 (Georgia Health Sciences University, priority 2003, dated 2012).
“Also recorded” adds a separate entry of the source.

Assays:
B16F10 melanomas = test: Established B16F10 melanoma in mice, 1MT with radiation or cyclophosphamide; format: in vivo, mouse
Experimental: FIGS. 11A-11D. Administration of 1-MT enhances immune-mediated host anti-tumor effect when administered with radiation or cyclophosphamide. Mice were injected subcutaneously (SQ) with 4×10^4 B16F10 cells. […] Control mice received vehicle pellets without drug.
Not unexpected, given that the tumor had already been allowed to create tolerance in the host.

[1] = Comparative plasma pharmacokinetics of the stereoisomers of 1-MT; format: in vivo, mice; details: for time to peak plasma concentrations: after PO administration, 50 mg/kg
Experimental: Comparative pharmacokinetic studies were initiated to characterize the in vivo disposition of the stereoisomers of 1-MT when administered by different routes, to determine the oral bioavailability, and to define the plasma concentrations associated with effective dosing regimens. Studies were conducted in conventional mice after IV, PO and SC doses of 50 mg/kg, and IP doses of 25 mg/kg, 50 mg/kg, and 100 mg/kg. In addition, plasma concentrations of 1-MT were determined in nude mice with implanted timed-release pellets designed to release the DL isomer for 7 days, and the D isomer for 14 days.

[2] = Pilot tissue biodistribution of D and L isomers after DL racemic infusion; format: in vivo, Mice; details: DL racemic 10 mg/day, 72 hour infusion
Description: The results noted with spleen are particularly relevant because it is a lymphoid organ, and thus likely to be similar to tumor-draining lymph nodes.

[3] = system: Lewis Lung carcinoma (LLC); details: administration of 1-MT; cited from earlier work
IDO [4] = test: Recall MLR of LN cells from recipients of TDLN DCs, 1MT added to the MLR; details: responders from recipients of TDLN DCs
Experimental: Inguinal LN cells from recipient mice were assayed for functional responsiveness using MLRs stimulated by irradiated C57BL/6 (H-2K^b-positive) splenocytes.

IDO [5] = target: IDO (Mus musculus, UniProt P28776); test: MLR with sorted tumor-draining LN cells (pDCs) as stimulators and BM3 responder T cells; details: 250 uM
Experimental: T cell activation in MLR. BM3 responder T cells were prepared from spleen by nylon-wool enrichment. Stimulators (sorted DCs or unfractionated TDLN) were mixed with 1×10^5 BM3 responder cells in 200 ul IMDM at the ratios shown in each figure. After 3 days, proliferation was measured by 4-hour thymidine incorporation assay.
MLRs were thus “two-way” reactions. However, the small number of sorted DCs used as stimulators contributed negligible proliferation compared to the large population of TCR-transgenic responder cells. Since the relevant readout was dominant suppression, the two-way MLR design presented no problem in interpretation.
Pooled draining LN cells (4 nodes) were stained and fractionated by 4-color MoFlo cell sorting for the two populations shown in the schematic of FIG. 5B. All other cells were collected in a third fraction. Each fraction was then used as stimulators in MLRs, using 50,000 BM3 T cells as responders. The number of stimulators used in each MLR was adjusted to be the same as would have been present in 50,000 cells of the original LN preparation, based on the measured percentage of each sorted fraction. Thus, 500 cells of the sorted B220^+ CD11c^+ fraction were added per well, and 1500 cells of the CD25^+ CD4^+ fraction, while 48,000 cells of the “all other” fraction were used.

[6] = target: indoleamine 2,3-dioxygenase (IDO) (Homo sapiens, UniProt P14902); test: Allogeneic mixed-leukocyte reaction (MLR) with IDO-expressing human DCs, T cell proliferation by thymidine incorporation; details: 250 uM in culture medium
Sequence of indoleamine 2,3-dioxygenase (IDO) (P14902 whole entry): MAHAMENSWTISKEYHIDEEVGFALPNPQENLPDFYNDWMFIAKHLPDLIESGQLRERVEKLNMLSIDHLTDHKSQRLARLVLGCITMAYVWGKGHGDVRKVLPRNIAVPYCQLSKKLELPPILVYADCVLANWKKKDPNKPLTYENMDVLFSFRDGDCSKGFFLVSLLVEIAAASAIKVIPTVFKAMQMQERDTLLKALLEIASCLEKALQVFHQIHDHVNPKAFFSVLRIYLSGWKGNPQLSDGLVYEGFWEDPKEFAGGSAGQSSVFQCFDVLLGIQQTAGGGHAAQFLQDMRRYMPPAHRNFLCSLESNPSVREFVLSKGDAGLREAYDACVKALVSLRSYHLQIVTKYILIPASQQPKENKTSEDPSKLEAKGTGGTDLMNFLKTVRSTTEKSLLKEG
Experimental: After five days, proliferation was measured by four hour thymidine incorporation assay. “V”-bottom culture wells (Nunc) were used in MLR assays to maximize cell-cell contact.
DCs were used as stimulators in allogeneic mixed-leukocyte reactions (MLRs), with allogeneic lymphocytes as responder cells.

Sequence of IDO (Mus musculus, UniProt P28776) (P28776 whole entry): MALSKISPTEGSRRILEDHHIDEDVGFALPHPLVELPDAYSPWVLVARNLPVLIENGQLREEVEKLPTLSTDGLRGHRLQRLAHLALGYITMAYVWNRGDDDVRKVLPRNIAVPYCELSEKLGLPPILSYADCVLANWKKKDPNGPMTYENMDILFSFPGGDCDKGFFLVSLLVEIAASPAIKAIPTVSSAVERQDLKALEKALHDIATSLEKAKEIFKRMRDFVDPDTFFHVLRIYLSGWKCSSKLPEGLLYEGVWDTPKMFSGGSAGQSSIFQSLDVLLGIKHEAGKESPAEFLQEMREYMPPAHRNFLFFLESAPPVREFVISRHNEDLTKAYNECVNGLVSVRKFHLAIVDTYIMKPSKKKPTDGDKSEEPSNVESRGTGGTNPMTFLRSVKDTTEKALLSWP

Cn1cc(C[C@@H](N)C(=O)O)c2ccccc21 [1-methyl-D-tryptophan]
effect of combination with radiation versus radiation alone, replicated studies (B16F10 melanomas; replicate of FIG. 11A design): enhanced effect over radiation alone
time to peak plasma concentrations [1]: 2 h
apparent volume of distribution ([1]; relative to L isomer): relatively greater
distribution into muscle, D and L isomers [2]: equivalent distribution
distribution into spleen, D and L isomers [2]: equivalent distribution
level in brain, D versus L isomer [2]: lower levels
level in plasma, D versus L isomer [2]: lower levels
accumulation in liver, D versus L isomer ([2]; SQ pellets, initial results): at least equal, and possibly preferential, accumulation

Cn1cc(C[C@H](N)C(=O)O)c2ccccc21 (racemic) [1MT, 1-methyl-tryptophan]
tumor growth, 1MT with total-body radiation (B16F10 melanomas; DL racemic 20 mg/day plus 500 cGy single dose): significantly reduce tumor growth
tumor growth, 1MT with cyclophosphamide (B16F10 melanomas; DL racemic 20 mg/day plus cyclophosphamide 150 mg/kg x 1 dose): significantly reduce tumor growth
effect of 1MT alone on established tumor (B16F10 melanomas; DL racemic form, 20 mg per mouse per day, SQ pellets, from day 7): no effect
effect of 1MT over cyclophosphamide alone in RAG1-knockout hosts (B16F10 melanomas; immunodeficient (RAG1-knockout) hosts): no enhancing effect
effect of 1MT alone, replicated radiation studies (B16F10 melanomas; replicate of FIG. 11A design): no effect
tumor outgrowth [3]: significantly delayed
effect of 1MT on suppression in recall MLRs (IDO [4]): no effect; also recorded: not restored

N[C@@H](Cc1c[nH]c2ccccc12)C(=O)O [L-tryptophan]
suppression by pDCs with excess L-tryptophan (IDO [5]; 10x): abrogated; also recorded: abrogates suppression
effect of 10x L-tryptophan with pDCs from IDO-knockout hosts (IDO [5]; IDO-KO): no effect
DC-mediated inhibition of T cell proliferation on addition of supra-physiologic tryptophan [6]: completely reversed

Cn1cc(C[C@H](N)C(=O)O)c2ccccc21 [L 1-MT, reference compound]
time to peak plasma concentrations [1]: 2 h
